Source: patent US7473704B2, “Cyclohexyl prostaglandin analogs as EP4-receptor agonists” (Allergan, Inc., priority 2003, dated 2009)

Key:
[1] = target: T1, human EP4 receptor (Homo sapiens, UniProt P35408); test: Recombinant human EP4 receptor binding assay (HEK-293-EBNA stable transfectants); conditions: read-out: Binding Data (IC50 in nM) hEP4
T1 construct: expressed in transfected cells
Protocol: (§1) Human Recombinant EP4 Receptor: Stable Transfectants.
(§2) Plasmids encoding the human EP4 receptor were prepared by cloning the respective coding sequences into the eukaryotic expression vector pCEP4 (Invitrogen). The pCEP4 vector contains an Epstein Barr virus (EBV) origin of replication, which permits episomal replication in primate cell lines expressing EBV nuclear antigen (EBNA-1). It also contains a hygromycin resistance gene that is used for eukaryotic selection. The cells employed for stable transfection were human embryonic kidney cells (HEK-293) that were transfected with and express the EBNA-1 protein. These HEK-293-EBNA cells (Invitrogen) were grown in medium containing Geneticin (G418) to maintain expression of the EBNA-1 protein. HEK-293 cells were grown in DMEM with 10% fetal bovine serum (FBS), 250 μg ml^−1 G418 (Life Technologies) and 200 μg ml^−1 gentamicin or penicillin/streptomycin.
(§3) For transfection, the cells were grown to 50-60% confluency on 10 cm plates. The plasmid pCEP4 incorporating cDNA inserts for the respective human prostanoid receptor (20 μg) was added to 500 μl of 250 mM CaCl2. HEPES buffered saline×2 (2×HBS, 280 mM NaCl, 20 mM HEPES acid, 1.5 mM Na2 HPO4, pH 7.05-7.12) was then added dropwise to a total of 500 μl, with continuous vortexing at room temperature. After 30 min, 9 ml DMEM were added to the mixture. The DNA/DMEM/calcium phosphate mixture was then added to the cells, which had been previously rinsed with 10 ml PBS. The cells were then incubated for 5 hr at 37° C. in humidified 95% air/5% CO2. The calcium phosphate solution was then removed and the cells were treated with 10% glycerol in DMEM for 2 min. The glycerol solution was then replaced by DMEM with 10% FBS. The cells were incubated overnight and the medium was replaced by DMEM/10% FBS containing 250 μg ml^−1 G418 and penicillin/streptomycin. The following day hygromycin B was added to a final concentration of 200 μg ml^−1.
(§4) Ten days after transfection, hygromycin B resistant clones were individually selected and transferred to a separate well on a 24 well plate. At confluence each clone was transferred to one well of a 6 well plate, and then expanded in a 10 cm dish. Cells were maintained under continuous hygromycin selection until use.
(§5) Certain of the above compounds were tested for activity in the recombinant human EP4 receptor assay described above and the results are reported in Table 1, below.

[2] = target: T1, human EP4 receptor; test: Recombinant human EP4 receptor functional assay (HEK-293-EBNA stable transfectants); format: cell-based; conditions: read-out: Functional Data (EC50 in nM) hEP4
Protocol: as §1, §2, §3, §4, §5

T1 sequence (P35408 whole entry): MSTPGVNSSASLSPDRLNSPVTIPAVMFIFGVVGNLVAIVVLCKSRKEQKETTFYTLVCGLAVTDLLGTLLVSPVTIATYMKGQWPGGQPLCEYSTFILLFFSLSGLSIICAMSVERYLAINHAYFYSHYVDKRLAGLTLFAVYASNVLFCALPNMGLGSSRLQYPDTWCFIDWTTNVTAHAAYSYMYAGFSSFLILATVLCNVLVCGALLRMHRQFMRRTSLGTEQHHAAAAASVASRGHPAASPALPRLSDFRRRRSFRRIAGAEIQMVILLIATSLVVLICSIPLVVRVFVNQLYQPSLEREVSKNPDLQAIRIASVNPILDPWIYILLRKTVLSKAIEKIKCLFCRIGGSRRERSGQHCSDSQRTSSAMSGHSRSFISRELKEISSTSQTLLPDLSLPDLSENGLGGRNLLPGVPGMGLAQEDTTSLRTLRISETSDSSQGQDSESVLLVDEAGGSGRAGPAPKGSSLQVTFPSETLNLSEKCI

SMILES | IC50 [1] [nM] | EC50 [2] [nM]
O=C(O)CCC/C=C\C[C@H]1C(=O)CC[C@@H](O)[C@@H]1/C=C/C(O)CCc1sc2ccccc2c1Cl (stereo partly drawn) [1 high Rf] | 200 | 136
O=C(O)CCC/C=C\C[C@H]1C(=O)CC[C@@H](O)[C@@H]1/C=C/C(O)CCc1sc2ccccc2c1Cl (stereo partly drawn) [1 low Rf] | 400 | 67
O=C(O)CCC/C=C\C[C@H]1C(=O)CC[C@@H](O)[C@@H]1/C=C/C(O)Cc1ccccc1 (stereo partly drawn) [Example 2, (Z)-7-[(1R,2R,3R)-3-Hydroxy-2-((E)-3-hydroxy-4-phenyl-but-1-enyl)-6-oxo-cyclohexyl]-hept-5-enoic acid] | 100 | 11
O=C(O)CCC/C=C\C[C@H]1C(=O)CC[C@@H](O)[C@@H]1/C=C/C(O)Cc1csc2ccccc12 (stereo partly drawn) [Example 3, (Z)-7-[(1R,2R,3R)-2-((E)-4-Benzo[b]thiophen-3-yl-3-hydroxy-but-1-enyl)-3-hydroxy-6-oxo-cyclohexyl]-hept-5-enoic acid] | 1300 | 168
O=C(O)CCCC#CC[C@H]1C(=O)CC[C@@H](O)[C@@H]1/C=C/C(O)CCc1ccccc1 (stereo partly drawn) [Example 4, 7-[(1R,2R,3R)-3-Hydroxy-2-((E)-3-hydroxy-5-phenyl-pent-1-enyl)-6-oxo-cyclohexyl]-hept-5-ynoic acid] | 1000 | 214
O=C(O)CCC/C=C\C[C@@H]1[C@@H](/C=C/C(O)CCc2sc3ccccc3c2Cl)[C@H](O)CC[C@H]1Cl (stereo partly drawn) [Example 6, (Z)-7-{(1R,2R,3R,6R)-6-Chloro-2-[(E)-5-(3-chloro-benzo[b]thiophen-2-yl)-3-hydroxy-pent-1-enyl]-3-hydroxy-cyclohexyl)-hept-5-enoic acid] | 35 | 314
O=C(O)CCCC#CC[C@H]1C(=O)CC[C@@H](O)[C@@H]1/C=C/C(O)Cc1csc2ccccc12 (stereo partly drawn) [Example 8, 7-[(1R,2R,3R)-2-((E)-4-Benzo[b]thiophen-3-yl-3-hydroxy-but-1-enyl)-3-hydroxy-6-oxo-cyclohexyl]-hept-5-ynoic acid] | 3500 | 362
CCCCC[C@H](O)CC[C@H]1[C@H](O)CCC(=O)[C@@H]1CCCCCCC(=O)O [Example 9, 7-[(1R,2R,3R)-3-Hydroxy-2-((S)-3-hydroxy-octyl)-6-oxo-cyclohexyl]-heptanoic acid] | 600 | 387
O=C(O)CCC/C=C\C[C@H]1C(=O)C=CC[C@@H]1/C=C/C(O)CCc1sc2ccccc2c1Cl (stereo partly drawn) [Example 10, (Z)-7-{(1R,6R)-6-[(E)-5-(3-Chloro-benzo[b]thiophen-2-yl)-3-hydroxy-pent-1-enyl]-2-oxo-cyclohex-3-enyl}-hept-5-enoic acid] | 1800 | 456
